# Source: patent EP0745595A1, “3-(3-Aryloxyphenyl)-1-(substituted methyl)-s-triazine-2,4,6-oxo or thiotrione herbicidal agents” (American Cyanamid Company, priority 1995, dated 1996)
# Legend:
# Type in all cases: in vivo
# [1] = test system: GLYCINE MAX(L) MERR. CV. WILLIAMS; assay: Preemergence herbicidal evaluation, GLXMAW (Soybean, Williams); conditions: for GLXMAW herbicidal rating: rated four to five weeks after treatment
# In short: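 First, seeds in potting soil are sown atop soil in cups. Next, the surface is sprayed with test compound in aqueous acetone at roughly 0.125 to 0.50 kg per hectare. After four to five weeks of greenhouse care, each cup is scored 0-9 against a control.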
# ZEA MAYS L. [2] = assay: Preemergence herbicidal evaluation, ZEAMX (Corn, Field); conditions: for ZEAMX herbicidal rating: rated four to five weeks after treatment
# In short: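 Preemergence herbicidal activity on field corn: seeds in potting soil were sown atop roughly one inch of soil in separate pint cups, treated, and grown under standard greenhouse care. Four to five weeks post-treatment, stand, vigor, malformation, size, chlorosis and overall appearance were compared with a control and scored 0-9.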
# [3] = test system: CYPERUS SEROTINUS, ROTTB.; assay: Preemergence weed control under flooded paddy conditions, CYPSE (Flatsedge); conditions: for CYPSE: pre-weed; for CYPSE herbicidal rating: preemergence weeds, rated three to four weeks after treatment
# In short: (§1)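 Visual 0-9 rating against untreated control, covering stand, vigor, malformation, size and chlorosis, scored three to four weeks post-treatment in a greenhouse. Application was into 1.5-3 cm flood water over silt loam sown at 0.5 cm. The 50/50 v/v aqueous/acetone doses were about 0.5, 0.25, 0.125 and 0.063 kg/ha.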
# SAGITTARIA PYGMAEA, L. = assay: Preemergence weed control under flooded paddy conditions, SAGPY (Arrowhead (Pygmaea)); conditions: for SAGPY: pre-weed
# In short: as §1
# [4] = test system: GLYCINE MAX(L) MERR. CV. WILLIAMS; assay: Postemergence herbicidal evaluation, GLXMAW (Soybean, Williams); parameters: key to GLXMAW rating / Herbicidal effect rating, GLXMAW / GLXMAW: 0-9 visual rating scale vs untreated control
# In short: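 Herbicidal injury to Williams soybean was assessed after a postemergence spray of two-week-old seedlings grown in jiffy flats. Compounds were dispersed in an acetone/water (50/50) mixture with 0.5% TWEEN®20 surfactant and applied at 40 psi. After four to five weeks in the greenhouse, stand, vigor, malformation, size and chlorosis were compared against a control on a 0-9 scale, and results from replicate tests were averaged.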
# ZEA MAYS L. [5] = assay: Postemergence herbicidal evaluation, ZEAMX (Corn, Field)
# In short: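 This greenhouse postemergence test treated corn plants about two weeks old. Compounds in a 50/50 acetone/water mixture with 0.5% TWEEN®20 were applied through a spray nozzle at 40 psi. After four to five weeks, injury was scored 0-9 against an untreated control, judging stand, vigor, malformation, size, chlorosis and overall appearance. Repeated tests were averaged.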
# [6] = test system: ORYZA SATIVA, L. TEBONNET; assay: Postemergence herbicidal evaluation, ORYSAT (Rice, Tebonnet); parameters: key: 0-9 visual rating scale vs untreated control
# Protocol: In the tests, seedling plants are grown in jiffy flats for about two weeks. The test compounds are dispersed in 50/50 acetone/water mixtures containing 0.5% TWEEN®20, a polyoxyethylene sorbitan monolaurate surfactant of Atlas Chemical Industries, in sufficient quantities to provide the equivalent of about 0.125 kg to 0.500 kg per hectare of active compound when applied to the plants through a spray nozzle operating at 40 psi for a predetermined time. After spraying, the plants are placed on greenhouse benches and are cared for in the usual manner, commensurate with conventional greenhouse practices. From four to five weeks after treatment, the seedling plants are examined and rated according to the rating system set forth below. Where more than one test is involved for a given compound, the data are averaged.
# Plant species employed in these evaluations are reported by header abbreviation, common name and scientific name.
# Results of herbicide evaluation are expressed on a rating scale (0-9). The scale is based upon a visual observation of plant stand, vigor, malformation, size, chlorosis and overall plant appearance as compared with a control.
# […], PRESL. = Preemergence weed control under flooded paddy conditions, MOOVA (Monochoria); conditions: for MOOVA: pre-weed
# In short: as §1
# [7] = test system: ECHINOCHLOA ORYZOIDES (ARD.)FRITSCH; assay: Preemergence weed control under flooded paddy conditions, ECHORC (Watergrass (Calif.)); conditions: 0.500 kg/ha, preemergence, 3-4 weeks after treatment
# In short: as §1
# CYPERUS IRIA = assay: Preemergence weed control under flooded paddy conditions, CYPIR (Rice Flatsedge); conditions: 0.500 kg/ha, preemergence, 3-4 weeks after treatment
# In short: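 This preemergence test mimicked flooded paddy conditions: rice flatsedge propagules were sown in the upper 0.5 cm of silt loam in undrained 32 oz. containers (10.5 cm diameter), with water held 1.5 to 3 cm over the soil. After normal greenhouse care, plants were scored 0-9 for stand, vigor, malformation, size, chlorosis and appearance relative to controls.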
# CASSIA OBTUSIFOLIA, L. = assay: Preemergence herbicidal evaluation, CASOB (Sicklepod); conditions: rated four to five weeks after treatment
# In short: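 Preemergence herbicidal activity against sicklepod was assessed by planting seed mixed with potting soil atop about one inch of soil in pint cups. After treatment the cups were watered and handled per standard greenhouse practice. Tests ended four to five weeks later, with plant stand, vigor, malformation, size, chlorosis and overall appearance scored 0-9 relative to a control.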
# [8] = 0.500 kg/ha, preemergence, 3-4 weeks after treatment
smiles,measurement,setting,value
"Cn1c(=O)[nH]c(=O)n(-c2cc(Oc3c(F)cc(C(F)(F)F)cc3Cl)ccc2F)c1=O [C, reference compound]",GLXMAW,[1]; Rate 0.031 kg/ha,0.0
same,GLXMAW,[1]; Rate 0.063 kg/ha,0.0
same,GLXMAW,[1]; Rate 0.125 kg/ha,0.0
same,GLXMAW,[1]; Rate 0.250 kg/ha,0.0
same,ZEAMX,ZEA MAYS L. [2]; Rate 0.031 kg/ha,0.0
same,ZEAMX,ZEA MAYS L. [2]; Rate 0.063 kg/ha,0.0
same,ZEAMX,ZEA MAYS L. [2]; Rate 0.125 kg/ha,0.0
same,ZEAMX,ZEA MAYS L. [2]; Rate 0.250 kg/ha,0.0
same,CYPSE,[3]; Rate 0.031 kg/ha,0.0
same,CYPSE,[3]; Rate 0.063 kg/ha,0.0
same,CYPSE,[3]; Rate 0.125 kg/ha,0.0
same,CYPSE,[3]; Rate 0.250 kg/ha,0.0
same,SAGPY,"SAGITTARIA PYGMAEA, L.; Rate 0.031 kg/ha",0.0
same,SAGPY,"SAGITTARIA PYGMAEA, L.; Rate 0.063 kg/ha",0.0
same,SAGPY,"SAGITTARIA PYGMAEA, L.; Rate 0.125 kg/ha",0.0
same,SAGPY,"SAGITTARIA PYGMAEA, L.; Rate 0.250 kg/ha",0.0
same,"Herbicidal effect rating, GLXMAW",[4]; 0.031 kg/ha,3.5
same,"Herbicidal effect rating, GLXMAW",[4]; 0.063 kg/ha,4.5
same,"Herbicidal effect rating, GLXMAW",[4]; 0.125 kg/ha,4.5
same,"Herbicidal effect rating, GLXMAW",[4]; 0.250 kg/ha,5.0
same,"Herbicidal effect rating, ZEAMX",ZEA MAYS L. [5]; 0.031 kg/ha,3.0
same,"Herbicidal effect rating, ZEAMX",ZEA MAYS L. [5]; 0.063 kg/ha,3.5
same,"Herbicidal effect rating, ZEAMX",ZEA MAYS L. [5]; 0.125 kg/ha,4.0
same,"Herbicidal effect rating, ZEAMX",ZEA MAYS L. [5]; 0.250 kg/ha,4.5
same,"Herbicidal effect rating, ORYSAT",[6]; 0.031 kg/ha,3.0
same,"Herbicidal effect rating, ORYSAT",[6]; 0.063 kg/ha,3.5
same,"Herbicidal effect rating, ORYSAT",[6]; 0.125 kg/ha,3.5
same,"Herbicidal effect rating, ORYSAT",[6]; 0.250 kg/ha,3.5
same,MOOVA,"[…], PRESL.; Rate 0.031 kg/ha",9.0
same,MOOVA,"[…], PRESL.; Rate 0.063 kg/ha",9.0
same,MOOVA,"[…], PRESL.; Rate 0.125 kg/ha",9.0
same,MOOVA,"[…], PRESL.; Rate 0.250 kg/ha",9.0
"COC(=O)Cn1c(=O)[nH]c(=O)n(-c2cc(Oc3ccc(C(F)(F)F)cc3Cl)ccc2[N+](=O)[O-])c1=O [Compound 8, Methyl 3-{5-[(2-chloro-α,α,α-trifluoro-p-tolyl)oxy]-2-nitrophenyl}tetrahydro-2,4,6-trioxo-s-triazine-1(2H)-acetate]",CYPSE herbicidal rating,[3]; Rate 0.063 kg/ha,0.0
same,CYPSE herbicidal rating,[3]; Rate 0.125 kg/ha,0.0
same,CYPSE herbicidal rating,[3]; Rate 0.250 kg/ha,0.0
"COC(=O)Cn1c(=O)n(C)c(=O)n(-c2cc(Oc3ccc(SC)cc3Cl)ccc2[N+](=O)[O-])c1=O [Compound 34, Methyl 3-{5-[2-chloro-4-(methylthio)-phenoxy]-2-nitrophenyl}tetrahydro-5-methyl-2,4,6-trioxo-s-triazine-1(2H)-acetate]",GLXMAW herbicidal rating,[1]; Rate 0.125 kg/ha,0.0
same,GLXMAW herbicidal rating,[1]; Rate 0.250 kg/ha,0.0
same,GLXMAW herbicidal rating,[1]; Rate 0.500 kg/ha,0.0
same,ZEAMX herbicidal rating,ZEA MAYS L. [2]; Rate 0.125 kg/ha,0.0
same,ZEAMX herbicidal rating,ZEA MAYS L. [2]; Rate 0.250 kg/ha,0.0
same,ZEAMX herbicidal rating,ZEA MAYS L. [2]; Rate 0.500 kg/ha,0.0
same,"Herbicidal effect rating, CYPSE",[3]; [8],0.0
same,"Herbicidal effect rating, ECHORC",[7],0.0
same,"Herbicidal effect rating, SAGPY","SAGITTARIA PYGMAEA, L.; [8]",0.0
same,"Herbicidal effect rating, CYPIR",CYPERUS IRIA,0.0
same,CASOB herbicidal rating,"CASSIA OBTUSIFOLIA, L.; Rate 0.125 kg/ha",0.0
same,CASOB herbicidal rating,"CASSIA OBTUSIFOLIA, L.; Rate 0.250 kg/ha",0.0
same,CASOB herbicidal rating,"CASSIA OBTUSIFOLIA, L.; Rate 0.500 kg/ha",0.0
same,"Herbicidal effect rating, MOOVA","[…], PRESL.; [8]",0.0
